Assay results published in US20100248390A1, “COMPOSITIONS AND METHODS FOR IDENTIFYING LIGANDS OF ODORANT RECEPTORS” (DUKE UNIVERSITY, priority 2009, published 2010).
pEC50: −log10 of the molar value. Where two headings read alike, the source gives them in different places.

Columns and labels:
Experiment in all cases: CRE-luciferase assay of odorant receptor activation (Dual-Glo, Hana3A cells, RTP1S), dose-response EC50
Assay type in all cases: cell-based
[1] = biological target: T1, mouse odorant receptors (ORs) (Mus musculus, UniProt P23275)
T1 construct: OR open reading frames were amplified from genomic DNA; expressed in transfected cells; host or cells: Hana3A cells, co-transfected with RTP1S, CRE-luciferase and pRL-SV40
T1 sequence (P23275 1-312): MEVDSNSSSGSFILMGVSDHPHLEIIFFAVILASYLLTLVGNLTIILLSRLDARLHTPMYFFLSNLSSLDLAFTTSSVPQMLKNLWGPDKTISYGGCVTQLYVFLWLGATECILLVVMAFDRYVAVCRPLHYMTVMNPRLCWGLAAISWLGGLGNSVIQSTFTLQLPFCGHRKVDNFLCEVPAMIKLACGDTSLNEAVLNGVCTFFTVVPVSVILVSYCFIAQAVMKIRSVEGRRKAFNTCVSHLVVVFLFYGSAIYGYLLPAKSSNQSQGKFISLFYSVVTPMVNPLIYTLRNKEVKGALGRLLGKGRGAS
From the text: (§1) Cloning mouse and human ORs. […] OR open reading frames were amplified from genomic DNA using proofreading KOD DNA polymerase (Toyobo/Novagen) and subcloned into pCI expression vectors (Promega) containing the first 20 residues of human rhodopsin (Rho tag). The sequences of the cloned receptors were verified by sequencing (3100 Genetic Analyzer, ABI Biosystems). Immunocytochemistry and FACS analysis. […] For FACS analysis, phycoerythrin (PE)-conjugated anti-mouse IgG (Jackson Immunologicals) was used. In order to monitor the transfection efficiency, Green Fluorescent Protein (GFP) was co-transfected with the OR. The intensity of receptor cell surface expression was calculated as the ratio of PE and GFP expression. 7-aminoactinomycin D (Calbiochem) was added before flow cytometry to mark dead cells which were excluded from the analysis. The gate and mean of PE positive cells was normalized by GFP values. Luciferase assay. […] Odorant receptor activation leads to an increase in intracellular cAMP; CRE-luciferase (Stratagene) was used to measure this change. […] Hana3A cells were plated on poly-D-lysine-coated 96-well plates (BioCoat; Becton Dickinson). […] For each 96-well plate transfected, 1 μg of CRE-Luc, 1 μg of pRL-SV40, 5 μg of odorant receptor plasmid, and 1 μg of RTP1S was used. Approximately 24 hours post transfection, the medium was replaced with CD293 chemically defined medium (Gibco) and the plate was incubed for 30 min at 37° C. The medium was then replaced with 25 μL of odorant solution diluted in CD293 and the plate was incubated for 4 hrs at 37° C. and 5% CO2. The manufacturer's protocols for measuring luciferase and Renilla luciferase activities was followed. […] All luminescence values were divided by the Renilla Luciferase activity to control for transfection efficiency in a given well. Normalized luciferase activity was calculated using the formula (LN−Lmin)/(Lmax−Lmin), where LN is the luminescence of firefly luciferase in response to the odorant, Lmin is the minimum luciferase value on a plate or set of plates, and Lmax is the maximum luciferase value on a plate or set of plates. The data was analyzed using Microsoft Excel and GraphPad Prism 4. Screening procedure. The entire OR library was stimulated with eight separate odorant mixtures formed from 93 odorants (FIG. 12). […] A comparison between the 93 individual odorants at a 100 μM dose and a no-odor control was performed for all 290 […]. Each comparison was performed in triplicate; statistical significance was assessed by t-test (uncorrected for multiple comparisons). […] A single odorant was used on each plate to avoid cross-contamination, and each OR odorant dose was tested at least three times. The data was fit to a sigmoidal curve. […] Physicochemical descriptors. […] Receptor descriptors. […] Correlations between descriptors and responses. […] All odorants for which there were fewer than 3 responsive receptors were eliminated. For all remaining odorant pairs the Pearson correlation between EC50 vectors and the Euclidean distance between descriptor vectors was calculated. The Pearson correlation between these two sets of distances was then measured. Optimizing descriptors. […] In this method one begins with an empty set of descriptors. Each descriptor is combined with the previous set of descriptors and correlation values are computed for all of these candidate sets of descriptors. To reduce overfitting, the data is randomly divided into ten subsets and correlation values are computed for each leave-one out subset. The final correlation coefficient for each set of descriptors is the average of the correlation coefficients for each subset. The set with the best correlation coefficient then becomes the new set of descriptors and the process is repeated until the correlation coefficient increases by less than 0.004 in three consecutive iterations.

[2] = test system: mouse odorant receptors (ORs); settings: for log EC50, MOR271-1 / log EC50 (Table 4 value), MOR271-1: receptor MOR271-1
From the text: as §1

[3] = biological target: T2, human odorant receptors (ORs) (Homo sapiens, UniProt Q9Y3N9); settings: for EC50: receptor OR2W1
T2 construct: OR open reading frames were amplified from genomic DNA; expressed in transfected cells; host or cells: Hana3A cells, co-transfected with RTP1S, CRE-luciferase and pRL-SV40
T2 sequence (Q9Y3N9 1-320): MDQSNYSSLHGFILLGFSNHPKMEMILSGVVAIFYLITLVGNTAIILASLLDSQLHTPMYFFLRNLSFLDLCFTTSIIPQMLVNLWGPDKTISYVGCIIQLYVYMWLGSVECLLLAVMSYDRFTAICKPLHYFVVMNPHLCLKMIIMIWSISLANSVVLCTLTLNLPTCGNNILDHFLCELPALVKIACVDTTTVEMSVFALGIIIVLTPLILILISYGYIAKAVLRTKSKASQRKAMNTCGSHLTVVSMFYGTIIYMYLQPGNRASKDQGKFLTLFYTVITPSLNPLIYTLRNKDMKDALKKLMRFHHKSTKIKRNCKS
From the text: as §1, with “For all remaining odorant pairs the Pearson correlation between EC50 vectors and the Euclidean distance between descriptor vectors was calculated.” left out, “subset.” for “subset. The set with the best correlation coefficient then becomes the new set of descriptors and the process is repeated until the correlation coefficient increases by less than 0.004 in three consecutive iterations.”
(§2) The entire OR library was stimulated with one of 8 odorant mixtures drawn from 93 odorants chosen to represent diverse functional groups, sizes, and structures (Table 3). Each mixture was applied at five different concentrations. […] The 93 odorants were then applied individually at 100 μM to the 290 mixture-responsive ORs.

[4] = biological target: T3, human odorant receptors (ORs) (Homo sapiens, UniProt Q9P1Q5); settings: for EC50: receptor OR1A1
T3 construct: OR open reading frames were amplified from genomic DNA; expressed in transfected cells; host or cells: Hana3A cells, co-transfected with RTP1S, CRE-luciferase and pRL-SV40
T3 sequence (Q9P1Q5 1-309): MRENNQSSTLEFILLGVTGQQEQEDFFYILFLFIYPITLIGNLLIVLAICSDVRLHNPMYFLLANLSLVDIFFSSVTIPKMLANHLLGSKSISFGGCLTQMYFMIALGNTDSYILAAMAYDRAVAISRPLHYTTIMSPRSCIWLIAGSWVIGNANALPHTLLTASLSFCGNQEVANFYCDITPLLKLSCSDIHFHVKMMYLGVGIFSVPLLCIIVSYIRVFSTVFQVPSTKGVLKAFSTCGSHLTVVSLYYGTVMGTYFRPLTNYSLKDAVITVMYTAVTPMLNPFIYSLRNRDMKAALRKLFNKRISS
From the text: as §1, with “For all remaining odorant pairs the Pearson correlation between EC50 vectors and the Euclidean distance between descriptor vectors was calculated.” left out, “subset.” for “subset. The set with the best correlation coefficient then becomes the new set of descriptors and the process is repeated until the correlation coefficient increases by less than 0.004 in three consecutive iterations.”
as §2

[5] = biological target: T4, human odorant receptors (ORs) (Homo sapiens, UniProt Q8WZ94); settings: receptor OR5P3; 0 = no response; read-out: log EC50, OR5P3 (converted)
T4 construct: OR open reading frames were amplified from genomic DNA; expressed in transfected cells; host or cells: Hana3A cells, co-transfected with RTP1S, CRE-luciferase and pRL-SV40
T4 sequence (Q8WZ94 1-311): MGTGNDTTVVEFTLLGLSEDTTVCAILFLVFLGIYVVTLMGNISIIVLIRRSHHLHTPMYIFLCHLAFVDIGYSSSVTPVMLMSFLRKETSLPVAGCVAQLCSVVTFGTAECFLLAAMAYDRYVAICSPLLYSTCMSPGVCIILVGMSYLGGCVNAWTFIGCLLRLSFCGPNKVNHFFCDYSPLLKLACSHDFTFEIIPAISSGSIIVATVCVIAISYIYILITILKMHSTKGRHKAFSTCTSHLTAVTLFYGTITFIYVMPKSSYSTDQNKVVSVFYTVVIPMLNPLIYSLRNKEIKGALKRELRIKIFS
From the text: as §1, with “For all remaining odorant pairs the Pearson correlation between EC50 vectors and the Euclidean distance between descriptor vectors was calculated.” left out, “subset.” for “subset. The set with the best correlation coefficient then becomes the new set of descriptors and the process is repeated until the correlation coefficient increases by less than 0.004 in three consecutive iterations.”
as §2

[6] = receptor MOR41-1, 0 = no response
[7] = 0 = no response, read-out: log EC50, OR2W1 (converted)
[8] = receptor MOR203-1, 0 = no response
[9] = receptor MOR272-1, 0 = no response
[10] = 0 = no response, read-out: log EC50, OR1A1 (converted)

CCCC(=O)C(C)=O [23-Haxanedione]
EC50 ([1]; receptor MOR256-17, 0 = no response, read-out: log EC50, MOR256-17 (converted)): 14.5 µM
log EC50, MOR41-1 [2, 6]: −5.008
log EC50, MOR271-1 ([2]; 0 = no response): −4.824
EC50 [3, 7]: 434 µM

O=C(c1ccccc1)c1ccccc1 [Benzophenone]
log EC50 (Table 4 value), MOR162-1 ([2]; receptor MOR162-1): −3.685
log EC50 (Table 4 value), MOR259-1 ([2]; receptor MOR259-1): −4.442
log EC50 (Table 4 value), MOR269-1 ([2]; receptor MOR269-1): −3.652
pEC50 [3]: 4.54
pEC50 [4]: 4.01

CCCCCC(C)=O [2-Haptonone]
log EC50, MOR203-1 [2, 8]: −4.76
log EC50, MOR271-1 ([2]; 0 = no response): −4.581
log EC50, MOR272-1 [2, 9]: −5.073
EC50 [3, 7]: 7.21 µM
EC50 [4, 10]: 39.9 µM

CCCCCCC(C)=O [2-Octanone]
log EC50, MOR203-1 [2, 8]: −5.023
log EC50, MOR272-1 [2, 9]: −4.575
EC50 [3, 7]: 39.9 µM
EC50 [4, 10]: 42.7 µM

CCCCCCO [1-Hexanol]
log EC50, MOR41-1 [2, 6]: −4.064
EC50 [3, 7]: 14.1 µM
EC50 [5]: 175 µM

CCC(=O)C(=O)CC [34-Hexanedione]
pEC50 [1]: 4.92
log EC50 (Table 4 value), MOR41-1 ([2]; receptor MOR41-1): −4.692
log EC50 (Table 4 value), MOR271-1 [2]: −4.734
pEC50 [3]: 4.78

CCCCCCCC(C)=O [2-Noranone]
log EC50, MOR203-1 [2, 8]: −5.064
EC50 [3, 7]: 19.9 µM
EC50 [4, 10]: 265 µM

C=CCc1ccccc1 [Allyl benzene]
pEC50 [1]: 4.15
log EC50 (Table 4 value), MOR105-1 ([2]; receptor MOR105-1): −3.332
log EC50 (Table 4 value), MOR106-1 ([2]; receptor MOR106-1): −3.921

O=C1Cc2ccccc2O1 [2-Counpronon ?]
log EC50, MOR256-17 ([1]; receptor MOR256-17, 0 = no response): −4.575
log EC50, MOR1-1 ([2]; receptor MOR1-1, 0 = no response): −4.138
log EC50, MOR41-1 [2, 6]: −3.96
log EC50, MOR139-1 ([2]; receptor MOR139-1, 0 = no response): −3.585
log EC50, MOR258-1 ([2]; receptor MOR258-1, 0 = no response): −4.268
log EC50, MOR259-1 ([2]; receptor MOR259-1, 0 = no response): −3.63

CCCCCC(=O)CC [3-Octanone]
log EC50 (Table 4 value), MOR203-1 ([2]; receptor MOR203-1): −4.4
log EC50 (Table 4 value), MOR271-1 [2]: −4.139
log EC50 (Table 4 value), MOR272-1 ([2]; receptor MOR272-1): −4.197
EC50 ([3]; read-out: log EC50 (Table 4 value), OR2W1 (converted)): 9.55 µM
EC50 ([4]; read-out: log EC50 (Table 4 value), OR1A1 (converted)): 5.12 µM

CCCCC(=O)CC [3-Haptonone]
log EC50, MOR203-1 [2, 8]: −4.099
log EC50, MOR271-1 ([2]; 0 = no response): −5.235
log EC50, MOR272-1 [2, 9]: −5.221
EC50 [3, 7]: 33.3 µM
EC50 [4, 10]: 19.4 µM
